Experimental data reported in patent EP0248999A2, “Uses of enprostil-type prostaglandins in regulating fat and carbohydrate metabolism” (SYNTEX (U.S.A.) INC., priority 1986, dated 1987).
Like-named read-outs stand apart in the source and are kept apart here.

What was measured:
[1] = Animal antisecretory assays; assay type: in vivo; settings: compared with enprostil (isomer mixture)
insulin levels = settings: cited from earlier work
serum glucose levels = assay: Example 8 (headed 'Example'): 30-day dosing study with standard breakfast, serum glucose; assay type: in vivo, human; settings: enprostil 35 pg BID
Method: 20 subjects participated in a study lasting up to 44 days. On day -8, all 20 subjects received a placebo capsule, followed 30 minutes later by a standard breakfast with serial blood measurements. Eight days later all 20 subjects were randomized to either enprostil 35 pg BID or placebo, and continued dosing for a period of 30 days. On days 1, 8, and 30, they were given enprostil followed 30 minutes later by a standard breakfast with serial blood measurements.

serum glucose = assay: Example 7: 25 g intravenous glucose tolerance test; assay type: in vivo, human; settings: 25 g intravenous glucose 30 minutes after enprostil, day 2 and day 10
Method: (§1) 10 normal subjects participated in a 10-day placebo-controlled cross-over study, receiving either placebo or 70 µg enprostil per day. On day 1 and day 9 of each study phase they orally received 5 g of d-xylose, a sugar not normally metabolized in man. Blood measurements for serum xylose were made at -30, 0, +30, 60, 120, 180, 240, and 300 minutes following ingestion.of xylose. On day 2 and day 10 of each study phase, the subjects received a 25 g intravenous glucose tolerance test, 30 minutes following enprostil administration.

[2] = system: serum insulin and glucose levels; assay: Example 5: double-blind cross-over meal study, serum insulin and glucose; assay type: in vivo, human; settings: enprostil orally 30 minutes before meal
Method: (§2) The following non-limiting examples will further clarify the nature of this invention. In these examples, serum lipids and cholesterol were measured by standard methods ("Manual of Laboratory Operations, Lipid Research Clinic Program, Lipid and Lipoprotein Analysis", DHEW Publication No. (NIH) 75-628 (1974)); serum insulin, GIP, and C-peptide were measured by radioimmunoassay; and apoproteins were measured by radial immunodiffusion.
A group of 10 subjects participated in a double-blind cross-over study. Either a placebo or enprostil was orally given 30 minutes before meal time and levels of insulin and glucose were measured after the meal.

insulin and GIP = assay: Example 9: fatty meal study, insulin and GIP; assay type: in vivo, human
Method: as §2
(§3) Six male subjects participated in a double-blind cross-over study. Either placebo or enprostil […] was orally given 30 minutes before a fatty meal consisting of approximately 600 Kcal, 90% of which was fat. Following the meal, serum triglycerides and total serum cholesterol were measured at serial time points before and after removal of serum chylomicrons by ultracentrifugation. Serum HDL-cholesterol was measured only before chylomicron removal.

serum cholesterol levels [3] = assay: Example 3: 44-day placebo-controlled dosing study, total and LDL-cholesterol; assay type: in vivo, human
Method: as §2
In a 44-day dosing study, 20 subjects participated in a placebo-controlled trial. Ten subjects received enprostil and the remainder received placebo. Data were obtained from 9 of the 10 subjects who received enprostil. […] This subject was normocholesterolemic at baseline and no dietary manipulation was attempted.

serum GIP levels = assay: Example 4: double-blind cross-over meal study, serum GIP; assay type: in vivo, human; settings: 70p.g enprostil orally 30 minutes before meal; placebo four-fold increase
Method: as §2
Serum GIP levels are known to increase after meals.
Groups of 10 subjects participated in a double-blind, cross-over study. Either a placebo or 70p.g enprostil was orally given 30 minutes before meal time and levels of GIP were measured.

serum cholesterol levels [4] = assay: Example 2, Table 2: 9-day placebo-controlled cross-over study in normocholesterolemic subjects, serum lipids and apoproteins; assay type: in vivo, human; set-up: Mean reduction of cholesterol / Mean reduction of LDL-cholesterol / Mean reduction of HDL-cholesterol / Mean reduction of apoprotein-A / Mean reduction of apoprotein-B: concentration or dose not given beside the values; settings: 9-day cross-over
Method: as §2
To further clarify the nature of these changes in a prospective manner, normal subjects were dosed with enprostil for periods ranging from 8 days up to 44 days in duration.
In a 9-day placebo-controlled cross-over study, with each subject serving as their own control, the mean reduction in cholesterol, LDL-cholesterol, and HDL-cholesterol are shown in Table 2.
These findings are surprising since the subjects in this study were normocholesterolemic at baseline (that is serum cholesterol under 250 mg/dl) and were on a free diet with no attempt to regulate dietary cholesterol intake.

serum cholesterol levels [5] = assay: Example 2, Table 1: oral enprostil BID in hypercholesterolemic patients versus placebo; assay type: in vivo, human
Method: as §2

serum triglycerides = assay: Example 9: double-blind cross-over fatty meal study, serum and chylomicron triglycerides; assay type: in vivo, human
Method: as §2, §3

[6] = system: serum insulin and glucose levels; assay: Example 6: eight-day cross-over study with standard breakfast, serum glucose, insulin and GIP; assay type: in vivo, human; settings: 70 µg orally
Method: as §2
Eight healthy male subjects received either […] enprostil per day or placebo for eight days followed by a washout period of one week and a subsequent second eight-day administration during which they received the opposite drug regime.
On day 1 and day 8 of each study period the subjects reported to the clinical studies unit fasting and were administered 70 µg of enprostil orally in a glass of water. Thirty minutes later they were administered a standard breakfast and blood samples were drawn at -30 (just prior to enprostil administration), O (at the time of enprostil administration), 15, 30, 60, 90, 120 and 180 minutes.

serum cholesterol = assay: Example 1: oral enprostil, serum cholesterol in patients with high cholesterol baseline; assay type: in vivo, human; settings: five weeks
Method: as §2
A group of 20 patients with high cholesterol baseline were orally given 70 µg enprostil twice daily. […] The median change for the group was 16 percent reduction, with 60 percent of the patients tested showing a significant reduction in serum cholesterol.
A second group of 16 patients with a high cholesterol baseline were given […] enprostil twice daily.
A third group of 13 individuals were given a placebo. […] The median change was a 2 percent increase in cholesterol.

atherosclerotic plaque = assay: Example 10: cholesterol-fed rabbit, aortic atherosclerotic plaque; assay type: in vivo, New Zealand white rabbits; settings: Group B: 2% cholesterol diet, enprostil 10 pg/Kg/day constant oral infusion, 56 days; vehicle Group A 25%
Method: Fortyfive New Zealand white rabbits were allocated to three groups, A, B, and C, each group consisting of 15 rabbits. Group A was fed a 2% cholesterol diet and received vehicle administered by constant oral infusion at 62 ul/day using an Alza minipump. Group B was also fed a 2% cholesterol diet but, via the minipump, received enprostil at an infusion rate of 10 pg/Kg/day. Group C was fed a normal diet and received no treatment.
At the end of 56 days of the above treatments, rabbits were sacrificed and their aortic tissue was subjected to pathologic examination. In Group C, the placebo control group, the percent of aortic area covered by atherosclerotic plaque was under 5%. In the rabbits from Group A, which had received the high cholesterol diet with vehicle infusion, 25% of the aortic area was covered with atherosclerotic plaque. These findings contrasted with those for the Group B rabbits, which in addition to the high cholesterol diet had received enprostil by continuous infusion . In these animals, only 10% of aortic tissue was covered with atheromatous plaque. This finding is statistically significant from the Group A rabbits.

serum xylose = assay: Example 7: oral d-xylose absorption test in 10-day cross-over study; assay type: in vivo, human; settings: 5 g d-xylose orally
Method: as §1

[7] = administered by tube to the duodenum
[8] = of nine evaluable subjects receiving enprostil
[9] = one subject, baseline to day 44
[10] = enprostil 35 pg before fatty meal

Structure (SMILES): COC(=O)CCC=C=CC[C@H]1C(=O)C[C@@H](O)[C@@H]1/C=C/[C@@H](O)COc1ccccc1 (single isomer, unassigned) [R allenic isomer of enprostil]
- potency in animal antisecretory assays [1]: increased potency
- toxicity in animal antisecretory assays [1]: lower toxicity

Structure (SMILES): CCCCC[C@](C)(O)/C=C/[C@H]1[C@H](O)CC(=O)[C@@H]1C/C=C\CCCC(=O)OC [(15S),15-methyl-PGE2 methyl ester]
- insulin levels (insulin levels; [7]): lowered
- serum glucose levels (insulin levels; [7]): no change
- time to peak serum glucose levels (insulin levels; intraduodenally or intravenously): no change

Structure (SMILES): COC(=O)CCC=C=CCC1C(=O)CC(O)C1C=CC(O)COc1ccccc1 (racemic) [enprostil, methyl (±)-7-[(1R*,2R*,3R*)-3-hydroxy-2-[(E)-(3R*)-3-hydroxy-4-phenoxy-l-butenyl]-5-oxocyclopentyl]-4,5-heptadienoate]
- peak blood glucose levels versus placebo (serum glucose levels; standard breakfast): substantially reduced
- time of appearance of peak blood glucose levels (serum glucose levels; standard breakfast 30 minutes after dose, placebo approximately 60 minutes): ~90 min
- serum glucose by time curves following intravenous glucose administration, enprostil versus placebo (serum glucose): no marked differences
- raise in glucose levels after the meal [2]: no statistically or clinically significant raise
- increase of insulin levels after the meal ([2]; placebo five-fold): two-fold
- insulin levels following the fatty meal (insulin and GIP; enprostil 35 pg, at 30, 60, and 90 minutes): significantly lower
- GIP levels following the fatty meal (insulin and GIP; enprostil 35 µg, up to 360 minutes, p<0.05): virtually completely suppressed
- individuals with reduction in total and LDL-cholesterol throughout the entire 44-day period (serum cholesterol levels [3]; [8]): Three
- subjects showing a reduction of total cholesterol by 16 days (serum cholesterol levels [3]; [8]): Six
- total serum cholesterol at day 44 (serum cholesterol levels [3]; one subject (most dramatic example), mean baseline 208 mg/dl, normocholesterolemic, no dietary manipulation): 123 mg/dL
- LDL-cholesterol at day 44 (serum cholesterol levels [3]; one subject, baseline 140 mg/dl): 75 mg/dL
- reduction in LDL-cholesterol (serum cholesterol levels [3]; [9]): 46%
- reduction of total serum cholesterol (serum cholesterol levels [3]; [9]): 43%
- increase in serum GIP 60 minutes after the meal stimulus (serum GIP levels): no increase
- change in total triglycerides (serum cholesterol levels [4]): essentially no change
- Mean reduction of HDL-cholesterol (serum cholesterol levels [4]; free diet): -9.2%
- Mean reduction of LDL-cholesterol (serum cholesterol levels [4]; free diet): -21.0%
- Mean reduction of apoprotein-A (serum cholesterol levels [4]; free diet): -1.8%
- Mean reduction of apoprotein-B (serum cholesterol levels [4]; free diet): -16.0%
- Mean reduction of cholesterol (serum cholesterol levels [4]; free diet): -15.0%
- Cholesterol % decrease (combined 2-12 week of dosing) (serum cholesterol levels [5]; 7 µg BID, 9 hypercholesterolemic subjects): 67%
- Median % change (cholesterol) (serum cholesterol levels [5]; 7 µg BID, 9 subjects): -11%
- Cholesterol % decrease (combined 2-12 week of dosing) (serum cholesterol levels [5]; 35 µg BID, 28 hypercholesterolemic subjects): 64%
- Median % change (cholesterol) (serum cholesterol levels [5]; 35 µg BID, 28 subjects): -13%
- Cholesterol % decrease (combined 2-12 week of dosing) (serum cholesterol levels [5]; 70 µg BID, 28 hypercholesterolemic subjects): 64%
- Median % change (cholesterol) (serum cholesterol levels [5]; 70 µg BID, 28 subjects): -17%
- maximal postprandial total serum triglycerides before chylomicron removal (serum triglycerides; enprostil 35 pg 30 minutes before fatty meal, at 360 minutes, placebo 160 mg/dl at 120 minutes): 105 mg/dL
- appearance of postprandial serum (serum triglycerides; [10]): remained clear
- chylomicron triglyceride content (in words) (serum triglycerides; [10]): virtually complete suppression
- chylomicron-associated triglyceridemia through 120 minutes (serum triglycerides; [10]): complete absence
- fasting baseline total serum triglycerides before chylomicron removal (serum triglycerides; enprostil 35 pg phase, mean, placebo 86 mg/dl): 83 mg/dL
- fasting serum triglycerides after chylomicron removal (serum triglycerides; enprostil 35 pg phase, placebo 82 mg/dl): 80 mg/dL
- maximal postprandial serum triglycerides after chylomicron removal (serum triglycerides; enprostil 35 pg, 360 minutes, placebo 115 mg/dl (180 minutes)): 89 mg/dL
- mean rise of chylomicron triglyceride content over fasting level (serum triglycerides; enprostil 35 pg, at 360 minutes after fatty meal, placebo 46 mg/dl (120 minutes)): 16 mg/dL
- serum GIP ([6]; both study days): essentially complete inhibition
- serum insulin concentrations for each time point ([6]; day 1 and 8): marked reduction
- reduction of area under the serum glucose by time curve compared to the placebo phase ([6]; day 1 and day 8): 15-20%
- median change (reduction) of serum cholesterol (serum cholesterol; 35 pg enprostil twice daily, 16 patients with high cholesterol baseline): eleven
- number of patients showing greater than 10 percent serum cholesterol reduction (serum cholesterol; 35 pg twice daily, 16 patients): eight
- number of patients showing greater than 25 percent reduction (serum cholesterol; 35 pg twice daily, 16 patients): one
- number of patients showing no change in serum cholesterol (serum cholesterol; 35 pg twice daily, 16 patients): seven
- patients showing serum cholesterol reduction (serum cholesterol; 35 pg twice daily, 16 patients): 56%
- median change (reduction) of serum cholesterol (serum cholesterol; 70 µg enprostil orally twice daily, 20 patients with high cholesterol baseline): 16%
- number of patients showing greater than 10 percent reduction (serum cholesterol; 70 µg twice daily, 20 patients): eleven
- number of patients showing greater than 25 percent reduction (serum cholesterol; 70 µg twice daily, 20 patients): one
- number of patients showing no change in serum cholesterol (serum cholesterol; 70 µg twice daily, 20 patients): eight
- patients tested showing a significant reduction in serum cholesterol (serum cholesterol; 70 µg twice daily, 20 patients): 60%
- aortic tissue covered with atheromatous plaque (atherosclerotic plaque): 10%
- peak serum xylose levels (serum xylose; 70 µg enprostil per day, days 1 and 9): marked suppression and delay
- reduction in the amount of xylose excreted over 5 hours (serum xylose; 70 µg per day): 30%
- amount of xylose excreted over 5 hours (serum xylose; 70 µg per day, placebo 1.8g): 1.3 g

Structure (SMILES): CCCCC[C@](C)(O)/C=C/[C@H]1[C@H](O)CC(=O)[C@@H]1C/C=C\CCCC(=O)OCC [(15S),15-methyl-PGE2 ethyl ester]
- glucose levels (insulin levels; intravenous administration): without affecting
- insulin levels (insulin levels; intravenous administration): lowered
